Experiments:
vasopressin V1a receptor = vasopressin V1a receptor (Homo sapiens, UniProt P37288); test: In-vitro vasopressin receptor binding assay, V1a; details: for IC50: footnote 1: IC50 values (μM)
cloned human V2 receptor = target: T1, cloned human V2 receptor (Homo sapiens, UniProt P30518); test: In-vitro vasopressin receptor binding assay, V2; details: 3H-arginine-8-vasopressin; for IC50: footnote 1: IC50 values (μM)
T1 construct: expressed in transfected cells
Method: Assay buffer is 50 mM Tris-Cl, 5 mM MgC12, 0.1% BSA (pH 7.5) containing 5 ug/ml of aprotinin, leupeptin, pepstatin, 50 ug/ml bacitracin, and 1 mM Pefabloc. H3 vasopressin is ^3H-arginine-8-vasopressin (68.5 Ci/mmol, final concentration in assay is 0.65-0.75nM). Into wells of 96-well round bottom polypropylene plates are added buffer, test compound, membrane (containing cloned human V2 receptor), and H3 vasopressin. The reaction plates are allowed to sit at room temperature for one hour. The samples are filtered through Unifilter GF/C plates (presoaked in 0.3 polyethyleneimine). The plates are washed 5 times with cold physiological saline containing 0.05% Tween 20. After drying, the bottom of the filter plates are sealed and 0.025 ml of Microscint-20 is added to each filter. The top of the plate is sealed, and the plate is counted. Non-specific binding is determined by the addition of 1.25 uM arginine-8-vasopressin in those wells. %Inh. is [formula]

vasopressin V1a receptor, sequence (P37288 whole entry): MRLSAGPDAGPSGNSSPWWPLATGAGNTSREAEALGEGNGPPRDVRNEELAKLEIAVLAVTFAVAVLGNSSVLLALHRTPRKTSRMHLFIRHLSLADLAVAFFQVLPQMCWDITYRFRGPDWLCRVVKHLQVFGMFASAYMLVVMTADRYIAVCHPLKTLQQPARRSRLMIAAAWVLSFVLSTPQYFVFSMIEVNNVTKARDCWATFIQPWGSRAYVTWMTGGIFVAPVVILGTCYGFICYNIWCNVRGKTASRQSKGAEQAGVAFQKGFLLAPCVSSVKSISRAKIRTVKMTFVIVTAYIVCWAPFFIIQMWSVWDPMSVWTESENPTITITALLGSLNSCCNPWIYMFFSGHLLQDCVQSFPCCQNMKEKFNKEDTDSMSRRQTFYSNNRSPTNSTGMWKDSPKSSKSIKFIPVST

In the case of “2-(2-Aminoethyl)-5-[4-(2-phenylbenzoylamino)benzoyl]-1,5-benzothiazepine [Compound 28]”, the “Receptor Binding (% Inh. @ concentration in μM) V1a” value (vasopressin V1a receptor; 0.1 μM test compound) is reported as 19% @ .1 and the “Receptor Binding (% Inh. @ concentration in μM) V2” value (cloned human V2 receptor; 0.1 μM test compound) is reported as 46% 0.1.

In the case of “2-(2-Hydroxyethyl)-5-(4-(2-phenylbenzoylamino)-pyridinoyl)-1,5-benzothiazepine [Compound 40]”, the “Receptor Binding (% Inh. @ concentration in μM) V1a” value (vasopressin V1a receptor; 0.1 μM test compound) is reported as 22% @ .1 and the IC50 (cloned human V2 receptor) is reported as 0.03 µM.

“2-(2-Hydroxyethyl)-5-(4-(2-phenylbenzoylamino)benzoyl)-1,5-benzothiazepine [Compound 26]” showed an IC50 (vasopressin V1a receptor) of 0.027 µM and an IC50 (cloned human V2 receptor) of 0.007 µM.

For “2-(2-Hydroxyethyl)-5-(4-(2-phenylbenzoylamino)benzoyl)-1,5-benzothiazepine [Compound 27]”, the IC50 (vasopressin V1a receptor) was 0.091 µM and the IC50 (cloned human V2 receptor) was 0.014 µM.

“2-(2-Hydroxyethyl)-5-(4-aminobenzenesulfonyl)-1,5-benzothiazepine [Compound 4]” was tested, and the “Receptor Binding (% Inh. @ concentration in μM) V1a” value (vasopressin V1a receptor; 10 μM test compound) was 21% @ 10 and the “Receptor Binding (% Inh. @ concentration in μM) V2” value (cloned human V2 receptor; 10 μM test compound) was 20% @ 10.

With “2-(2-Hydroxyethyl)-5-[2-chloro-4-(2-methyl-5-fluorobenzoylamino)benzoyl]-1,5-benzothiazepine [Compound 43]” the “Receptor Binding (% Inh. @ concentration in μM) V1a” value (vasopressin V1a receptor; 0.1 μM test compound) was 4% @ .1 and the IC50 (cloned human V2 receptor) was 0.028 µM.

“2-(2-Hydroxyethyl)-5-[4-(3,4-dichlorobenzoylamino)benzene-sulfonyl]-1,5-benzothiazepine [Compound 10]” was tested, and the “Receptor Binding (% Inh. @ concentration in μM) V1a” value (vasopressin V1a receptor; 10 μM test compound) was 0% @ 10 and the IC50 (cloned human V2 receptor) was 2.1 µM.

“2-(2-Methanesulfonylethyl)-5-(4-(2-methylbenzoylamino)benzoyl)-1,5-benzothiazepine [Compound 13]” showed an IC50 (vasopressin V1a receptor) of 0.3 µM and an IC50 (cloned human V2 receptor) of 0.2 µM.

With “2-(2-Methanesulfonylethyl)-5-[(4-(2-phenylbenzoylamino)-benzenesulfonyl)]-1,5-benzothiazepine [Compound 20]” the “Receptor Binding (% Inh. @ concentration in μM) V1a” value (vasopressin V1a receptor; 1 μM test compound) was 24% @ 1 and the “Receptor Binding (% Inh. @ concentration in μM) V2” value (cloned human V2 receptor; 1 μM test compound) was 6% @ 1.

“2-(2-Methanesulfonylethyl)-5-[(4-(2-phenylbenzoylamino)-benzyl)]-1,5-benzothiazepin-4-one [Compound 21]” was tested, and the “Receptor Binding (% Inh. @ concentration in μM) V1a” value (vasopressin V1a receptor; 0.1 μM test compound) was 5% @ 0.1 and the “Receptor Binding (% Inh. @ concentration in μM) V2” value (cloned human V2 receptor; 0.1 μM test compound) was 1% @ 0.1.

With “2-(2-Methanesulfonylethyl)-5-[(4-(2-phenylbenzoylamino)benzoyl)]-1,5-benzothiazepine [Compound 16]” the IC50 (vasopressin V1a receptor) was 1.2 µM and the IC50 (cloned human V2 receptor) was 0.013 µM.

“2-[N-(tert-butoxycarbonyl)-ethyl]-5-[4-(2-methylbenzoylamino)-benzyl]-1,5-benzothiazepine-4-one [Compound 6]” was tested, and the “Receptor Binding (% Inh. @ concentration in μM) V1a” value (vasopressin V1a receptor; 10 μM test compound) was 13% @ 10 and the “Receptor Binding (% Inh. @ concentration in μM) V2” value (cloned human V2 receptor; 10 μM test compound) was 22% @ 10.

In the case of CC(=O)Nc1ccc(S(=O)(=O)N2CCC(CCN(C)C)Sc3ccccc32)cc1 (stereo not drawn) [Compound 1], the “Receptor Binding (% Inh. @ concentration in μM) V1a” value (vasopressin V1a receptor; 25 μM test compound) is reported as 14% @ 25 and the “Receptor Binding (% Inh. @ concentration in μM) V2” value (cloned human V2 receptor; 25 μM test compound) is reported as 7% @ 25.

For Cc1ccccc1C(=O)Nc1ccc(S(=O)(=O)N2CCC(CCN(C)C)Sc3ccccc32)cc1 (stereo not drawn) [Compound 2, 2-(2-Dimethylaminoethyl)-5-(4-(2-methylbenzoylamino)-benzenesulfonyl]-1,5-benzothiazepine], the “Receptor Binding (% Inh. @ concentration in μM) V1a” value (vasopressin V1a receptor; 25 μM test compound) was 29% @ 25 and the “Receptor Binding (% Inh. @ concentration in μM) V2” value (cloned human V2 receptor; 25 μM test compound) was 34% @ 25.

With Cc1ccccc1C(=O)Nc1ccc(S(=O)(=O)N2CCC(CCN3CCOCC3)Sc3ccccc32)cc1 (stereo not drawn) [Compound 3, 2-[2-(N-Morpholino)-ethyl]-5-[4-(2-methylbenzoylamino)-benzenesulfonyl]-1,5-benzothiazepine] the “Receptor Binding (% Inh. @ concentration in μM) V1a” value (vasopressin V1a receptor; 25 μM test compound) was 47% @ 25 and the “Receptor Binding (% Inh. @ concentration in μM) V2” value (cloned human V2 receptor; 25 μM test compound) was 37% @ 25.

For Cc1ccccc1C(=O)Nc1ccc(S(=O)(=O)N2CCC(CCO)Sc3ccccc32)cc1 (stereo not drawn) [Compound 5], the “Receptor Binding (% Inh. @ concentration in μM) V1a” value (vasopressin V1a receptor; 10 μM test compound) was 13% @ 10 and the IC50 (cloned human V2 receptor) was 0.76 µM.

In the case of Cc1ccccc1C(=O)Nc1ccc(CN2C(=O)CC(CCN)Sc3ccccc32)cc1 (stereo not drawn) [Compound 7, 2-(2-Aminoethyl)-5-[4-(2-methylbenzoylamino)-benzyl]-1,5-benzothiazepine-4-one], the “Receptor Binding (% Inh. @ concentration in μM) V1a” value (vasopressin V1a receptor; 10 μM test compound) is reported as 10% @ 10 and the “Receptor Binding (% Inh. @ concentration in μM) V2” value (cloned human V2 receptor; 10 μM test compound) is reported as 4% @ 10.

In the case of COc1ccc(CNCCC2CC(=O)N(Cc3ccc(NC(=O)c4ccccc4C)cc3)c3ccccc3S2)c(OC)c1 (stereo not drawn) [Compound 8], the “Receptor Binding (% Inh. @ concentration in μM) V1a” value (vasopressin V1a receptor; 10 μM test compound) is reported as 33% @ 10 and the “Receptor Binding (% Inh. @ concentration in μM) V2” value (cloned human V2 receptor; 10 μM test compound) is reported as 32% @ 10.

With Cc1ccccc1C(=O)Nc1ccc(C(=O)N2CCC(CCN(C)C)Sc3ccccc32)cc1 (stereo not drawn) [Compound 9] the IC50 (vasopressin V1a receptor) was 1.5 µM and the “Receptor Binding (% Inh. @ concentration in μM) V2” value (cloned human V2 receptor; 10 μM test compound) was 63% @ 10.

In the case of CN(C)CCC1CCN(C(=O)c2ccc(NC(=O)c3ccccc3-c3ccccc3)cc2)c2ccccc2S1 (stereo not drawn) [Compound 11, 2-(2-Dimethylaminoethyl)-5-(4-(2-phenylbenzoylamino)benzoyl)-1,5-benzothiazepine], the “Receptor Binding (% Inh. @ concentration in μM) V1a” value (vasopressin V1a receptor; 10 μM test compound) is reported as 63% @ 10 and the IC50 (cloned human V2 receptor) is reported as 0.43 µM.

CN(C)CCC1CCN(C(=O)c2ccc(N)cc2)c2ccccc2S1 (stereo not drawn) [Compound 12] was tested, and the “Receptor Binding (% Inh. @ concentration in μM) V1a” value (vasopressin V1a receptor; 10 μM test compound) was 35% @ 10 and the “Receptor Binding (% Inh. @ concentration in μM) V2” value (cloned human V2 receptor; 10 μM test compound) was 6% @ 10.

In the case of CNCCC1CCN(C(=O)c2ccc(NC(=O)c3ccccc3C)cc2)c2ccccc2S1 (stereo not drawn) [Compound 14], the “Receptor Binding (% Inh. @ concentration in μM) V1a” value (vasopressin V1a receptor; 1 μM test compound) is reported as 50% @ 1 and the “Receptor Binding (% Inh. @ concentration in μM) V2” value (cloned human V2 receptor; 1 μM test compound) is reported as 28% @ 1.

With Cc1ccccc1C(=O)Nc1ccc(C(=O)N2CCC(CCN)Sc3ccccc32)cc1 (stereo not drawn) [Compound 15, 2-(2-Aminoethyl)-5-[4-(2-methylbenzoylamino)benzoyl]-1,5-benzothiazepine] the “Receptor Binding (% Inh. @ concentration in μM) V1a” value (vasopressin V1a receptor; 1 μM test compound) was 42% @ 1 and the “Receptor Binding (% Inh. @ concentration in μM) V2” value (cloned human V2 receptor; 1 μM test compound) was 47% @ 1.

With O=C(Nc1ccc(C(=O)N2CCC(CCO)Sc3ccccc32)cc1)c1ccccc1-c1ccccc1 (stereo not drawn) [Compound 17] the IC50 (vasopressin V1a receptor) was 0.097 µM and the IC50 (cloned human V2 receptor) was 0.008 µM.

Work on Cc1ccccc1C(=O)Nc1ccc(C(=O)N2CCC(CCO)Sc3ccccc32)cc1 (stereo not drawn) [Compound 18] yielded an IC50 (vasopressin V1a receptor) of 0.041 µM and an IC50 (cloned human V2 receptor) of 0.048 µM.

In the case of O=C(Nc1ccc(S(=O)(=O)N2CCC(CCO)Sc3ccccc32)cc1)c1ccccc1-c1ccccc1 (stereo not drawn) [Compound 19, 2-(2-Hydroxyethyl)-5-[4-(2-phenylbenzoylamino)-benzenesulfonyl]-1,5-benzothiazepine], the “Receptor Binding (% Inh. @ concentration in μM) V1a” value (vasopressin V1a receptor; 1 μM test compound) is reported as 34% @ 1 and the “Receptor Binding (% Inh. @ concentration in μM) V2” value (cloned human V2 receptor; 1 μM test compound) is reported as 27% @ 1.

For Cc1ccccc1C(=O)Nc1ccc(CN2C(=O)CC(CCO)Sc3ccccc32)cc1 (stereo not drawn) [Compound 22, 2-(2-Hydroxyethyl)-5-(4-(2-methylbenzoylamino)benzyl)-1,5-benzothiazepine-4-one], the “Receptor Binding (% Inh. @ concentration in μM) V1a” value (vasopressin V1a receptor; 1 μM test compound) was 54% @ 1 and the “Receptor Binding (% Inh. @ concentration in μM) V2” value (cloned human V2 receptor; 1 μM test compound) was 33% @ 1.

Source: patent US6489321B1, “Nonpeptide substituted benzothiazepines as vasopressin antagonists” (Ortho-McNeil Pharmaceutical, Inc., priority 1999, dated 2002)
